Key:
[1] = target: T1, Alpha-1B adrenergic receptor (Rattus norvegicus, UniProt P15823); assay: DRUGMATRIX: Alpha-1B adrenergic receptor radioligand binding (ligand: prazosin); assay type: cell membranes, Wistar, Liver, Membrane; details: Not Active = under 50% inhibition at 10 µM
T1 sequence (P15823 whole entry): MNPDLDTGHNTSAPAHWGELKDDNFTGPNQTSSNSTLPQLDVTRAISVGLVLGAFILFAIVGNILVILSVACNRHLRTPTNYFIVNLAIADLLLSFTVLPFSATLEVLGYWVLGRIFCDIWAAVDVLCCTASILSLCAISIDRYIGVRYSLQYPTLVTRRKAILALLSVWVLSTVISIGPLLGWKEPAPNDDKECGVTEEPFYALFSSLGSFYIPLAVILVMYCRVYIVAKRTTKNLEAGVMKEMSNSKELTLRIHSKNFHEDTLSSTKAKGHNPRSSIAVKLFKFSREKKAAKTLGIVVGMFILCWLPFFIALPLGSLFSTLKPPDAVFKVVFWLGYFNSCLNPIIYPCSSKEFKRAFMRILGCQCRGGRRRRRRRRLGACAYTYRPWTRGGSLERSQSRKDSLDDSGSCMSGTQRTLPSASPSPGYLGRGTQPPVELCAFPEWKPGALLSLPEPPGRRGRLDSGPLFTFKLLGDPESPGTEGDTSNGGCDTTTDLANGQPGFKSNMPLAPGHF

[2] = target: T2, Alpha-1D adrenergic receptor (Homo sapiens, UniProt P25100); assay type: cell membranes, HEK293, Membrane; details: hek293; further: in other assays of this panel Not Active means under 50% inhibition at 10 µM
T2 sequence (P25100 whole entry): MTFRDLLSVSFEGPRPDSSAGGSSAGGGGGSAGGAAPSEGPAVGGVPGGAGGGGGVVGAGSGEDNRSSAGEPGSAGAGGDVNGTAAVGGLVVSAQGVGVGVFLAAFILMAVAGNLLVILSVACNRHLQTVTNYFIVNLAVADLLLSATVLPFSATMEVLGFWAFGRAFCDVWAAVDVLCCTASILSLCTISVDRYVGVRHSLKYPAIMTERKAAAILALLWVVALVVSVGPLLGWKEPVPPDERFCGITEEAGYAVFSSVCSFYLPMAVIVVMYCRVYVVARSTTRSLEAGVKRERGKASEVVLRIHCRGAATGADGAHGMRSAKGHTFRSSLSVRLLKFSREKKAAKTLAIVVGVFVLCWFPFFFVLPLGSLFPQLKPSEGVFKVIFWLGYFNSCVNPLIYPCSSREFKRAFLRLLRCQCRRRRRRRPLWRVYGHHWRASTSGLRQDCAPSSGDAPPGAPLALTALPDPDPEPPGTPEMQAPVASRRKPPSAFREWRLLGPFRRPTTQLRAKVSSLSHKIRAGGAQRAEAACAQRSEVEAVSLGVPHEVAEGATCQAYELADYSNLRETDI

[3] = target: T3, Vasoactive intestinal polypeptide receptor 1 (Homo sapiens, UniProt P32241); assay type: cell membranes, Membrane; details: ht-29; further: in other assays of this panel Not Active means under 50% inhibition at 10 µM
T3 sequence (P32241 whole entry): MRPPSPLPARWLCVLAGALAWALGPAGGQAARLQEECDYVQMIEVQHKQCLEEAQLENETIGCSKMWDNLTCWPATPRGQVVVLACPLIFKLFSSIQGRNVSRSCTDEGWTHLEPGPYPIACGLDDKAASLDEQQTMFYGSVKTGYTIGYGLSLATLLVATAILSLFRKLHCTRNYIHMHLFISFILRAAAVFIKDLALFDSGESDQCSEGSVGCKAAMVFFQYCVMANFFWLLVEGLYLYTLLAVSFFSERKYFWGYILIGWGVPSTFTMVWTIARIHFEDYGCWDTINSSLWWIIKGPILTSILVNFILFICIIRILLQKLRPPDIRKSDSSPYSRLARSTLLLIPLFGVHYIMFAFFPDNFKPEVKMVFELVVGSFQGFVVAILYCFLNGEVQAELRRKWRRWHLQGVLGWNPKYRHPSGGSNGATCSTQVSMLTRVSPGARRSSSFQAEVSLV

[4] = target: T4, C-X-C chemokine receptor type 2 (Homo sapiens, UniProt P25025); assay type: cell membranes, Membrane; details: cho-k1; further: in other assays of this panel Not Active means under 50% inhibition at 10 µM
T4 sequence (P25025 whole entry): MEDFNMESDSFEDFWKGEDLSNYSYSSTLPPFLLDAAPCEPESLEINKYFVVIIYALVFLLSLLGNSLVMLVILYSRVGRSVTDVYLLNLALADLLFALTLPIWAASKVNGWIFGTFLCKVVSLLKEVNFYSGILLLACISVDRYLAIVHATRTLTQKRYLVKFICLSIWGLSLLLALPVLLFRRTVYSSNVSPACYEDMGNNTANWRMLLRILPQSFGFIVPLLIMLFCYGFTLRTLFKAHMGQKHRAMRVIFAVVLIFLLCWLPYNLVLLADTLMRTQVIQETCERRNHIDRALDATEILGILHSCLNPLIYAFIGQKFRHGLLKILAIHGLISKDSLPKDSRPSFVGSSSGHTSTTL

[5] = DRUGMATRIX: Leukotriene, BLT (LTB4) radioligand binding (ligand: [3H]LTB4); assay type: cell membranes, Membrane; details: u-937; Not Active = under 50% inhibition at 10 µM
[6] = target: T5, Cysteinyl leukotriene receptor 1 (Homo sapiens, UniProt Q9Y271); assay type: cell membranes, CHO-K1, Membrane; details: cho-k1; further: in other assays of this panel Not Active means under 50% inhibition at 10 µM
T5 sequence (Q9Y271 whole entry): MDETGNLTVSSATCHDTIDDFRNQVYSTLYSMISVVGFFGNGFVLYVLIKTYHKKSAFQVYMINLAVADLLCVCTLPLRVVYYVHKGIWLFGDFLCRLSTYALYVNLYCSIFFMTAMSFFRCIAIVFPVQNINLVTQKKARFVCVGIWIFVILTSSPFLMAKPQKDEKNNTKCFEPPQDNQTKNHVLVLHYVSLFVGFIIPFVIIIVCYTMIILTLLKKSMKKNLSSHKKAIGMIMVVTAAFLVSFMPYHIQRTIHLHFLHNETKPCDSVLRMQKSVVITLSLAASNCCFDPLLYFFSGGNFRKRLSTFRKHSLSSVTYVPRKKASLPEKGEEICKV

[7] = target: Nitric oxide synthase 1 (Rattus norvegicus, UniProt P29476); assay type: tissue-based, Cerebellum; further: in other assays of this panel Not Active means under 50% inhibition at 10 µM
[8] = DRUGMATRIX: Phosphodiesterase PDE4 enzyme inhibition (substrate: [3H]cAMP + cAMP); details: u-937; Not Active = under 50% inhibition at 10 µM

Chain of Nitric oxide synthase 1 (P29476 whole entry): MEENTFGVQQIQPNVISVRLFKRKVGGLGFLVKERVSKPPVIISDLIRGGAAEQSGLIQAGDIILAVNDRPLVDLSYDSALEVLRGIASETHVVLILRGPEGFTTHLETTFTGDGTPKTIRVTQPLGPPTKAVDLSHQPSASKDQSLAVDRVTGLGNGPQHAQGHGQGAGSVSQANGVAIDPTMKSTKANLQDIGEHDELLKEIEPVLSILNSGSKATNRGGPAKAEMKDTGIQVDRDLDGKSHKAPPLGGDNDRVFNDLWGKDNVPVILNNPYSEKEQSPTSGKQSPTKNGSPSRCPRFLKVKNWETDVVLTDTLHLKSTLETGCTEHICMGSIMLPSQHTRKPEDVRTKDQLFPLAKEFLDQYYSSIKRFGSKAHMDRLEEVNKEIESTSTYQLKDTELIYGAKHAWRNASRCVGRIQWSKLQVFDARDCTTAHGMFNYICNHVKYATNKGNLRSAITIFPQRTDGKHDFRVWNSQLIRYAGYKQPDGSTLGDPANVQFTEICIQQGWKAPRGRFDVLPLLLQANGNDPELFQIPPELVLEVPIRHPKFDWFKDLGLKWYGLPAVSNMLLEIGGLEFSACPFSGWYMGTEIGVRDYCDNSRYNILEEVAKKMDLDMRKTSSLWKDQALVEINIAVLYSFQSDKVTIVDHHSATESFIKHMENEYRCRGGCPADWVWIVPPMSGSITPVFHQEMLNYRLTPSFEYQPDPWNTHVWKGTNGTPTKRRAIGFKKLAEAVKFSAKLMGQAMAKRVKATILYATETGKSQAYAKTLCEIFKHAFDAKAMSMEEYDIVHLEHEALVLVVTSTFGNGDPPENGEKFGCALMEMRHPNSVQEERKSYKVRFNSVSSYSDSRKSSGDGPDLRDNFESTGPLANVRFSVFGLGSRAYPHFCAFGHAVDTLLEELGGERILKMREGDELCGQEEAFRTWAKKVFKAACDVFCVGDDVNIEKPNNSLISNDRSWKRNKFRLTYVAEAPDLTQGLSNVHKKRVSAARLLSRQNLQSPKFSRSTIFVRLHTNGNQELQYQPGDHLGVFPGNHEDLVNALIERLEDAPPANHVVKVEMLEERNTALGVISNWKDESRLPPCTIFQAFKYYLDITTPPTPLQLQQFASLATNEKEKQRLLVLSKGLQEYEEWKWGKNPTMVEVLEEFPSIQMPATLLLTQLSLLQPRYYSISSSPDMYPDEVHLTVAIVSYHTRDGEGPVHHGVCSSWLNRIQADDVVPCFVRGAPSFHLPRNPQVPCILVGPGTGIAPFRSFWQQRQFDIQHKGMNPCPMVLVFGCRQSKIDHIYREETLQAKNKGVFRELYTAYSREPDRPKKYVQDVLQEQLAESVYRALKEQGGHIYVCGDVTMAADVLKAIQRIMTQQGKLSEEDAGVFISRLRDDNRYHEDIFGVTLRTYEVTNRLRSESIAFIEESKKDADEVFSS

Cc1onc(-c2ccccc2)c1-c1ccc(S(N)(=O)=O)cc1 [VALDECOXIB]
Not Active: IC50 [1] | IC50 [2] | IC50 [3] | IC50 [4] | IC50 [5] | Ki [5] | IC50 [6] | IC50 [7] | IC50 [8] | Ki [8]

CC[C@]1(O)C[C@@H]2CN(CCc3c([nH]c4ccccc34)[C@@](C(=O)OC)(c3cc4c(cc3OC)N(C)[C@H]3[C@@](O)(C(=O)OC)[C@H](OC(C)=O)[C@]5(CC)C=CCN6CC[C@]43[C@@H]65)C2)C1 [VINBLASTINE]
Not Active: IC50 [1] | IC50 [2] | IC50 [3] | IC50 [4] | IC50 [5] | Ki [5] | IC50 [6] | IC50 [7] | IC50 [8] | Ki [8]

CC(=O)CC(c1ccccc1)c1c(O)c2ccccc2oc1=O (stereo not given) [WARFARIN]
Not Active: IC50 [1] | IC50 [2] | IC50 [3] | IC50 [4] | IC50 [5] | Ki [5] | IC50 [6] | IC50 [7] | IC50 [8] | Ki [8]

C[C@@H](N)[C@H]1CC[C@H](C(=O)Nc2ccncc2)CC1 [Y-27632]
Not Active: IC50 [1] | IC50 [2] | IC50 [3] | IC50 [4] | IC50 [5] | Ki [5] | IC50 [6] | IC50 [7] | IC50 [8] | Ki [8]

[Cl-].[Cl-].[Zn+2] [ZINC CHLORIDE]
Not Active: IC50 [1] | IC50 [2] | IC50 [3] | IC50 [4] | IC50 [5] | Ki [5] | IC50 [6] | IC50 [7] | IC50 [8] | Ki [8]

— ChEMBL document CHEMBL1909046, “DrugMatrix in vitro pharmacology data”
